Where two headings read alike, the source gives them in different places.

Data set [1] relates to phosphodiesterase-4 (PDE-4) extract from U937 cells. The experiment in a line: Phosphodiesterase-4 inhibiting activity (isotopic two-step method). The class given is biochemical.
For data set [2], the system named is production of human TNF-α by PBMC in response to LPS. The experiment in a line: TNF-α assay (LPS-stimulated PBMC, sandwich ELISA). It counts as cell-based. The settings on record: LPS 1 μg/ml, 72 hours, read-out: TNF α. A digest of the protocol:
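Human PBMC isolated from heparinised blood by density gradient (10^6 cells/ml) stimulated with LPS at 1 μg/ml final, with test compound at 0.1, 1 and 10 μM, 72 h at 37° C, 5% CO2. Supernatant TNF-α quantified by sandwich ELISA against recombinant standard curve; % suppression calculated.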

Data set [3] deals with peripheral blood mononuclear cells (PBMC) stimulated with allogeneic PBMC or EBV-transformed human B cells (RPMI1788). The data set can be described thus: Mixed lymphocyte reaction (MLR) assay. It counts as cell-based. The settings on record: 50% suppression of the MLR, [3H]-thymidine incorporation, read-out: MLR. A digest of the protocol: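 Compounds, held as 10 mM DMSO stocks and diluted in culture medium, were added to PBMC stimulated by 30 Gy-irradiated allogeneic PBMC or RPMI1788 cells. Proliferation was read as [3H]-thymidine uptake (1 μCi, final 16 h) after 5 days at 37° C. Inhibition was derived from cpm.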
Background: Dividing cells build labelled thymidine or BrdU into new DNA.

Consider `NC(=O)c1nc(Cl)ccc1N`, for which the melting point – broadly, the temperature, or range, at which the solid turns liquid – is 176 to 177 °C. `Nc1nc2ccc(Cl)nc2c(=O)[nH]1`: the melting point was over 330 °C. `CCCOc1nc(NC(C)=O)nc2ccc(Cl)nc12` gave a melting point of 191 °C.

Molecule `CC(=O)Nc1nc(OC(C)C)c2nc(Cl)ccc2n1` displayed a melting point of 244 °C. On the same count and under the same terms, next, `CC(=O)Nc1nc(OCC(C)C)c2nc(Cl)ccc2n1`: 168 °C; `CCC(C)Oc1nc(NC(C)=O)nc2ccc(Cl)nc12` (stereo not shown): 143 to 144 °C; `CCCCCOc1nc(NC(C)=O)nc2ccc(Cl)nc12`: 174 °C. The same measure, in the same setting: in the case of `CCOc1nc(N)nc2ccc(-c3ccccc3F)nc12` it was 182 °C.

Take `CCOc1nc(N)nc2ccc(-c3cccc(F)c3)nc12`: the melting point came to 174 °C. For the molecule `CCOc1nc(N)nc2ccc(-c3ccc(F)cc3)nc12`, the melting point was in the range of 188 to 189 °C. The same measure, in the same setting: in the case of `CC(C)Oc1nc(N)nc2ccc(-c3cccc(F)c3)nc12` it was 200 to 201 °C; in that of `CC(=O)Nc1nc(OC(C)C)c2nc(-c3ccc(F)cc3)ccc2n1`, 196 to 197 °C. The same measure, in the same setting: in the case of `CCCCOc1nc(N)nc2ccc(-c3ccccc3F)nc12` it was 147 to 148 °C; in that of `CCCCOc1nc(N)nc2ccc(-c3cccc(F)c3)nc12`, 160 to 161 °C. Same read-out and setting: next, `CCCCOc1nc(N)nc2ccc(-c3ccc(F)cc3)nc12`: 172 to 173 °C; `CC(C)COc1nc(N)nc2ccc(-c3ccccc3F)nc12`: 165 °C. Molecule `CC(C)COc1nc(N)nc2ccc(-c3cccc(F)c3)nc12` yielded a melting point of 185 °C. Same read-out and setting: in the case of `CC(C)COc1nc(N)nc2ccc(-c3ccc(F)cc3)nc12` it was 196 °C; in that of `CCC(C)Oc1nc(N)nc2ccc(-c3ccccc3F)nc12` (stereo not shown), 159 °C; in that of `CCC(C)Oc1nc(N)nc2ccc(-c3cccc(F)c3)nc12` (stereo not shown), 158 to 159 °C. On the same count and under the same terms, next, `CCCCCOc1nc(N)nc2ccc(-c3ccccc3F)nc12`: 136 to 137 °C; `CCCCCOc1nc(N)nc2ccc(-c3cccc(F)c3)nc12`: 142 to 143 °C.

With `Nc1nc(OCc2ccccc2)c2nc(-c3ccccc3F)ccc2n1`, the melting point was in the range of 200 to 202 °C. The same measure, in the same setting: next, `Nc1nc(OCc2ccccc2)c2nc(-c3cccc(F)c3)ccc2n1`: 199 to 200 °C. The same measure, in the same setting: next, `Nc1nc(OCc2ccccc2)c2nc(-c3ccc(F)cc3)ccc2n1`: 225 °C. With `COc1ccc(-c2ccc3nc(N)nc(N4CCN(CC(=O)Nc5nccs5)CC4)c3n2)cc1OC` [Example 48, 2-amino-4-[2-(piperazin-1-yl)-acetic acid N-(2-thiazolyl)-amide]-6-(3,4-dimethoxyphenyl)-pyrido[3,2-d]pyrimidine], the “PDE-4 (% inhibition)” value in data set [1] (@ 0.06 μM) is reported as 59% @ 0.06 μM. In addition, the IC50 in data set [2] and in data set [3] was 0.06 µM throughout. For the molecule `COc1ccc(-c2ccc3nc(N)nc(N4CCN(C(C)=O)CC4)c3n2)cc1OC` [Example 49, 2-amino-4-(N-acetyl-piperazinyl)-6-(3,4-dimethoxyphenyl)-pyrido[3,2-d]pyrimidine], the “PDE-4 (% inhibition)” value in data set [1] (@ 0.04 μM) is given as 48% @ 0.04 μM. In addition, the values for the IC50 in data set [2] and in data set [3] were 0.04 µM and 0.07 µM, respectively.

In the case of `COc1ccc(-c2ccc3nc(N)nc(N4CCN(C(=O)Nc5ccsc5)CC4)c3n2)cc1OC` [Example 54, 2-amino-4(N-3-thienylcarbamoyl-piperazin-1-yl)-6-(3,4-dimethoxyphenyl)-pyrido[3,2-d]pyrimidine], in data set [1] (@ 0.1 μM), the “PDE-4 (% inhibition)” value turned out to be 62% @ 0.1 μM. For the same molecule, the results for the IC50 in data set [2] and in data set [3] were 0.05 µM and 0.002 µM, respectively. On the same counts, the results for `COc1ccc(-c2ccc3nc(N)nc(N4CCN(C(=O)Nc5ccc(F)cc5)CC4)c3n2)cc1OC` [Example 56, 2-amino-4(N-4-fluoro-phenyl-carbamoyl-piperazin-1-yl)-6-(3,4-dimethoxy-phenyl)-pyrido[3,2-d]pyrimidine] are 74% @ 0.1 μM, 0.07 µM and 0.003 µM. On the same counts, the results for `COc1ccc(-c2ccc3nc(N)nc(N4CCN(C(=O)Nc5ccc(F)c(Cl)c5)CC4)c3n2)cc1OC` [Example 57, 2-amino-4(N-3-chloro-4-fluoro-phenyl-carbamoyl-piperazin-1-yl)-6-(3,4-dimethoxyphenyl)-pyrido[3,2-d]pyrimidine] are 74% @ 0.1 μM, 0.3 µM and 0.004 µM. On the same counts, the results for `COc1ccc(-c2ccc3nc(N)nc(N4CCN(C(=O)Nc5cccc(Cl)c5)CC4)c3n2)cc1OC` [Example 58, 2-amino-4(N-3-chloro-phenyl-carbamoyl-piperazin-1-yl)-6-(3,4-dimethoxy-phenyl)-pyrido[3,2-d]pyrimidine] are 75% @ 0.1 μM, 0.26 µM and 0.0004 µM. As to `COc1ccc(-c2ccc3ncnc(N4CCN(C(=O)Nc5ccc(F)c(Cl)c5)CC4)c3n2)cc1OC` [Example 108, 4-[(N-3-chloro-4-fluorophenylcarbamoyl)-piperazin-1-yl]-6-(3,4-dimethoxy-phenyl)-pyrido[3,2-d]pyrimidine], the “PDE-4 (% inhibition)” value in data set [1] (@ 0.2 μM) came out at 59% @ 0.2 μM. For the same molecule, the IC50 came to 0.2 µM in data set [2] and 0.06 µM in data set [3]. As to `COc1ccc(-c2ccc3ncnc(N4CCN(C(=O)Nc5cccs5)CC4)c3n2)cc1OC` [Example 109], in data set [1] (@ 0.09 μM), the “PDE-4 (% inhibition)” value worked out at 58% @ 0.09 μM. For the same molecule, the IC50 is 0.13 µM in data set [2] and 0.06 µM in data set [3]. Turning to `COc1ccc(-c2ccc3ncnc(N4CCN(C(=O)COc5ccc(Cl)cc5)CC4)c3n2)cc1OC` [Example 113, 4-[(N-4-chlorophenoxy-acetyl)-piperazin-1-yl]-6-(3,4-dimethoxyphenyl)-pyrido[3,2-d]pyrimidine], the “PDE-4 (% inhibition)” value in data set [1] (@ 0.4 μM) is given as 77% @ 0.4 μM. Moreover, the figures for the IC50 in data set [2] and in data set [3] were 0.3 µM and 0.04 µM, respectively. Consider `COc1ccc(-c2ccc3nc(N)nc(N4CCN(C(=O)Nc5cccc(Cl)c5)CC4)c3n2)cc1O` [Example 212], for which the “PDE-4 (% inhibition)” value in data set [1] (@ 0.9 μM) was 43% @ 0.9 μM. Moreover, the IC50 in data set [2] (Homo sapiens, PBMC) came to 0.9 µM; in data set [3] (Homo sapiens, RPMI-1788), 0.04 µM. Consider `CCOc1cc(-c2ccc3ncnc(N4CCN(C(=O)Nc5cccc(Cl)c5)CC4)c3n2)ccc1OC` [Example 213, 4-[N-(3-chloro-phenylcarbamoyl)-piperazin-1-yl]-6-(3-ethoxy-4-methoxy-phenyl)-pyrido[3,2-d]pyrimidine], for which, in data set [1] (@ 0.06 μM), the “PDE-4 (% inhibition)” value turned out to be 78% @ 0.06 μM. Also, the IC50 in data set [2] (Homo sapiens, PBMC) stood at 0.06 µM; in data set [3] (Homo sapiens, RPMI-1788) it was 0.057 µM.

For `COc1ccc(-c2ccc3ncnc(N4CCN(C(=O)Nc5cccc(Cl)c5)CC4)c3n2)cc1OC(C)C` [Example 214, 4-[N-(3-chloro-phenylcarbamoyl)-piperazin-1-yl]-6-(3-isopropoxy-4-methoxy-phenyl)-pyrido[3,2-d]pyrimidine], the “PDE-4 (% inhibition)” value in data set [1] (@ 0.3 μM) was 61% @ 0.3 μM. The IC50 stood at 0.3 µM in data set [2] (Homo sapiens, PBMC) and 0.05 µM in data set [3] (Homo sapiens, RPMI-1788). Consider `COc1ccc(-c2ccc3nc(N)nc(NCCNC(=O)Nc4cccc(C)c4)c3n2)cc1OC` [Example 261, 2-amino-4-[(3-methylphenylcarbamoyl)-ethylenediamine-1-N-yl]-6-(3,4-dimethoxyphenyl)-pyrido[3,2-d]pyrimidine], for which the “PDE-4 (% inhibition)” value in data set [1] (@ 10 μM) stood at 86% @ 10 μM. Moreover, the IC50 in data set [2] (Homo sapiens, PBMC) worked out at 0.8 µM; in data set [3] (Homo sapiens, RPMI-1788), 0.08 µM.

(Values after patent publication US20090264415A2 (priority 2004, published 2009).)
